Columns and labels:
Assay type in all cases: biochemical
PIM1 = PIM1 (Homo sapiens (Human), UniProt P11309); assay: biochemical; conditions: 10 μM ATP, 90 min, room temperature; read-out: PIM1 LC3K (KI)
Description: A fluorescent-labeled Pim-specific peptide substrate, was custom synthesized by American Peptide Company (Sunnyvale, Calif.). Reaction Buffer contained 10 mM HEPES, pH 7.2, 10 mM MgCl2, 0.01% Tween 20, 2 mM DTT. Termination Buffer contained 190 mM HEPES, pH 7.2, 0.015% Brij-35, 0.2% Coating Reagent 3 (Caliper Life Sciences, Hopkinton, Mass.), 20 mM EDTA. Separation Buffer contained 100 mM HEPES, pH 7.2, 0.015% Brij-35, 0.1% Coating Reagent 3, 1:200 Coating Reagent 8 (Caliper Life Sciences, Hopkinton, Mass.), 10 mM EDTA and 5% DMSO.
PIM reactions were carried out in a final volume of 10 μL per well in a 384-well plate. […] After 90 minutes of incubation at room temperature, the phosphorylation reaction was stopped by the addition of 10 μL Termination Buffer. The product and substrate in each independent reaction were separated on a 12-sipper microfluidic chip (Caliper Life Sciences, Hopkinton, Mass.) run on a Caliper LC3000® (Caliper Life Sciences, Hopkinton, Mass.). The separation of product and substrate was optimized by choosing voltages and pressure using Caliper's Optimizer software (Hopkinton, Mass.). […] Substrate conversion was calculated from the electropherogram using HTS Well Analyzer software (Caliper Life Sciences, Hopkinton, Mass.). Ki values for the test compound were calculated.

PIM2 = PIM2 (Homo sapiens (Human), UniProt Q9P1W9); assay: Pim kinase binding activity, Caliper LC3000 microfluidic peptide phosphorylation assay, PIM2; conditions: 10 μM ATP, 90 min, room temperature; read-out: PIM2 LC3K (KI)
Outline: (§1)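 Read-out is microfluidic electrophoretic separation of phosphorylated from unphosphorylated fluorescent Pim peptide, with Ki calculated from conversion. Reactions ran 90 min at room temperature in HEPES pH 7.2 containing MgCl2, Tween 20 and DTT, ended by EDTA-containing buffer.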

PIM3 = PIM3 (Homo sapiens (Human), UniProt Q86V86); assay: Pim kinase binding activity, Caliper LC3000 microfluidic peptide phosphorylation assay, PIM3; conditions: 10 μM ATP, 90 min, room temperature; read-out: PIM3 LC3K (KI)
Outline: as §1

Chain of PIM2 (Q9P1W9 whole entry): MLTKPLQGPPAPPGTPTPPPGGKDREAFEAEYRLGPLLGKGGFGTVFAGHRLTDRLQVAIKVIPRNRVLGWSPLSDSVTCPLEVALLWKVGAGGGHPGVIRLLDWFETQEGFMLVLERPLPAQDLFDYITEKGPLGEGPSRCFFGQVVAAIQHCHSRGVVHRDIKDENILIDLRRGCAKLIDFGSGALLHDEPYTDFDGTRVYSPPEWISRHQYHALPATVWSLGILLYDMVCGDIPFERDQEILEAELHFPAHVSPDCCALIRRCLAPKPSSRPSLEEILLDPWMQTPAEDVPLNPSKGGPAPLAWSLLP
Chain of PIM1 (P11309 whole entry): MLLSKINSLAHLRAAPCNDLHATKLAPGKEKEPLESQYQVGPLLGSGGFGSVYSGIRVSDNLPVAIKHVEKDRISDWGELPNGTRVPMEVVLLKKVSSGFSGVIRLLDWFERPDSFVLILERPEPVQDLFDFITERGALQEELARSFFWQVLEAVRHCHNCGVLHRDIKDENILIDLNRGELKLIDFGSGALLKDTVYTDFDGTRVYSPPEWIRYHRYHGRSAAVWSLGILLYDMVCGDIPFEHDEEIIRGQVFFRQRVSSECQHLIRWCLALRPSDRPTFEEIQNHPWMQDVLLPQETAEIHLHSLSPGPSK

Row | Ki (PIM1) [nM] | Ki (PIM2) [nM] | Ki (PIM3) [nM] | Structure (SMILES)
1 | 0.08 | 9.04 | 0.117 | c1cc(N2CCCNCC2)nc(-n2ncc3cnc(-c4cncc(C5COC5)c4)cc32)c1 [Compound 118, 1-(6-(1,4-diazepan-1-yl)pyridin-2-yl)-6-(5-(oxetan-3-yl)pyridin-3-yl)-1H-pyrazolo[4,3-c]pyridine]
2 | 3.74 | 40.4 | 2.3 | Cc1cncc(-c2cc3c(cn2)cnn3-c2cccc(N3CCNCCC3=O)n2)n1 [Compound 206, 4-[6-[6-(6-methylpyrazin-2-yl)pyrazolo[4,3-c]pyridin-1-yl]-2-pyridyl]-1 4-diazepan-5-one]
3 | 0.479 | 16.9 | 0.652 | c1cc(N2CCNCC2)nc(-n2ncc3cnc(-c4cncc(C5COC5)c4)cc32)c1 [Compound 114, 6-(5-(oxetan-3-yl)pyridin-3-yl)-1-(6-(piperazin-1-yl)pyridin-2-yl)-1H-pyrazolo[4,3-c]pyridine]
4 | 1.55 | 16.5 | 0.806 | Cn1cc(-c2cc3c(cn2)cnn3-c2cccc(C3CCCNCC3)n2)cn1 (stereo not drawn) [Compound 235, 1-(6-(azepan-4-yl)pyridin-2-yl)-6-(1-methyl-1H-pyrazol-4-yl)-1H-pyrazolo[4,3-c]pyridine]
5 | 1.04 | 13.4 | 0.454 | CCn1cc(-c2cc3c(cn2)cnn3-c2cccc(N3CCCC(N)CC3)n2)cn1 (stereo not drawn) [Compound 140, 1-(6-(6-(1-ethyl-1H-pyrazol-4-yl)-1H-pyrazolo[4,3-c]pyridin-1-yl)pyridin-2-yl)azepan-4-amine]
6 | 0.698 | 17.5 | 0.37 | O=c1cncc(-c2cc3c(cn2)cnn3-c2cccc(N3CCNCC3)n2)[nH]1 [Compound 287, 6-[1-(6-piperazin-1-yl-2-pyridyl)pyrazolo[4,3-c]pyridin-6-yl]-1H-pyrazin-2-one]
7 | 128 | 4100 | 45.2 | Cn1ncc(-c2cc3c(cn2)cnn3-c2cccc(N3CCCNCC3)n2)cc1=O [Compound 148, 5-(1-(6-(1,4-diazepan-1-yl)pyridin-2-yl)-1H-pyrazolo[4,3-c]pyridin-6-yl)-2-methylpyridazin-3(2H)-one]
8 | 5.05 | 63.3 | 4.32 | Cn1cc(-c2cc3c(cn2)cnn3-c2cccc(C3(O)CCCNCC3)n2)cn1 (stereo not drawn) [Compound 230, 4-(6-(6-(1-Methyl-1H-pyrazol-4-yl)-1H-pyrazolo[4,3-c]pyridin-1-yl)pyridin-2-yl)azepan-4-ol]
9 | 1.21 | 9.54 | 1.09 | FC(F)n1cc(-c2cc3c(cn2)cnn3-c2cccc(N3CCCNCC3)n2)cn1 [Compound 173, 1-(6-(1,4-Diazepan-1-yl)pyridin-2-yl)-6-(1-(difluoromethyl)-1H-pyrazol-4-yl)-1H-pyrazolo[4,3-c]pyridine]

Second part, the compound before the results:

Row | Structure (SMILES) | Ki (PIM1) [nM] | Ki (PIM2) [nM] | Ki (PIM3) [nM]
10 | CCn1cc(-c2cc3c(cn2)cnn3-c2cccc(N3CCN[C@@H](C)C3)n2)cn1 [Compound 126, (S)-6-(1-ethyl-1H-pyrazol-4-yl)-1-(6-(3-methylpiperazin-1-yl)pyridin-2-yl)-1H-pyrazolo[4,3-c]pyridine] | 0.349 | 7.36 | 0.349
11 | Cc1cncc(-c2cc3c(cn2)cnn3-c2cnc(Cl)c(N3CCC[C@H](N)C3)n2)n1 [Compound 226, (3S)-1-[3-chloro-6-[6-(6-methylpyrazin-2-yl)pyrazolo[4,3-c]pyridin-1-yl]pyrazin-2-yl]piperidin-3-amine] | 1.65 | 10.4 | 0.89
12 | Cc1cncc(-c2cc3c(cn2)cnn3-c2cnc(C3CC3)c(N3CCC[C@H](N)C3)n2)n1 [Compound 238, (3S)-1-[3-cyclopropyl-6-[6-(6-methylpyrazin-2-yl)pyrazolo[4,3-c]pyridin-1-yl]pyrazin-2-yl]piperidin-3-amine] | 0.026 | 0.257 | 0.032
13 | COc1ccc(-n2ncc3cnc(-c4cncc(C)n4)cc32)nc1N1CCCNC1=O [Compound 251, 1-[3-methoxy-6-[6-(6-methylpyrazin-2-yl)pyrazolo[4,3-c]pyridin-1-yl]-2-pyridyl]hexahydropyrimidin-2-one] | 48.8 | 181 | 31.6
14 | Cc1cncc(-c2cc3c(cn2)cnn3-c2ccc(C(F)(F)F)c(N3CCNCC(O)C3)n2)n1 (stereo not drawn) [Compound 219, 1-(6-(6-(6-methylpyrazin-2-yl)-1H-pyrazolo[4,3-c]pyridin-1-yl)-3-(trifluoromethyl)pyridin-2-yl)-1,4-diazepan-6-ol] | 0.433 | 12.5 | 0.265
15 | C[C@]1(O)CNCCN(c2cccc(-n3ncc4cnc(-c5cnn(CC(F)(F)F)c5)cc43)n2)C1 [Compound 248, (S)-6-Methyl-1-(6-(6-(1-(2,2,2-trifluoroethyl)-1H-pyrazol-4-yl)-1H-pyrazolo[4,3-c]-pyridin-1-yl)pyridin-2-yl)-1,4-diazepan-6-ol] | 1.64 | 22.1 | 3.36
16 | Cc1cncc(-c2cc3c(cn2)cnn3-c2cccc(N3CC4(CCNC4)C3)n2)n1 [Compound 217, 1-[6-(2 7-diazaspiro[3.4]octan-2-yl)-2-pyridyl]-6-(6-methylpyrazin-2-yl)pyrazolo[4,3-c]pyridine] | 1.17 | 15.1 | 0.258
17 | Cc1cncc(-c2cc3c(cn2)cnn3-c2cc(C3COC3)cc(N3CCC[C@H](N)C3)n2)n1 [Compound 250, (S)-1-(6-(6-(6-methylpyrazin-2-yl)-1H-pyrazolo[4,3-c]pyridin-1-yl)-4-(oxetan-3-yl)pyridin-2-yl)piperidin-3-amine] | 3.89 | 24.8 | 0.743
18 | Cc1cncc(-c2cc3c(cn2)cnn3-c2cccc(N3CCC(O)C(O)C3)n2)n1 (stereo not drawn) [Compound 312, 1-(6-(6-(6-methylpyrazin-2-yl)-1H-pyrazolo[4,3-c]pyridin-1-yl)pyridin-2-yl)piperidine-3,4-diol] | 0.644 | 3.58 | 0.481
19 | OC1CNCCN(c2cccc(-n3ncc4cnc(-c5cncc(C6CC6)c5)cc43)n2)C1 (stereo not drawn) [Compound 115, 1-(6-(6-(5-cyclopropylpyridin-3-yl)-1H-pyrazolo[4,3-c]pyridin-1-yl)pyridin-2-yl)-1,4-diazepan-6-ol] | 0.155 | 14.9 | 0.306
20 | COc1ncc(-n2ncc3cnc(-c4cncc(C)n4)cc32)nc1N1CCC[C@H](N)C1 [Compound 222, (3S)-1-[3-methoxy-6-[6-(6-methylpyrazin-2-yl)pyrazolo[4,3-c]pyridin-1-yl]pyrazin-2-yl]piperidin-3-amine] | 0.125 | 0.979 | 0.073
21 | Cn1cc(-c2cc3c(cn2)cnn3-c2cccc(N3CC(O)(CN)C3)n2)cn1 [Compound 270, 3-(Aminomethyl)-1-(6-(6-(1-methyl-1H-pyrazol-4-yl)-1H-pyrazolo[4,3-c]pyridin-1-yl)pyridin-2-yl)azetidin-3-ol] | 1.08 | 20.4 | 0.361
22 | Cc1cncc(-c2cc3c(cn2)cnn3-c2cc(N3CCC[C@H](N)C3)c(=O)n(C)c2)n1 [Compound 233, (S)-3-(3-aminopiperidin-1-yl)-1-methyl-5-(6-(6-methylpyrazin-2-yl)-1H-pyrazolo[4,3-c]pyridin-1-yl)pyridin-2(1H)-one] | 528 | 2300 | 903
23 | Cc1cncc(-c2cc3c(cn2)cnn3-c2ccc(C)c(N3C[C@@H](N)CCC3=O)n2)n1 [Compound 221, (5S)-5-amino-1-[3-methyl-6-[6-(6-methylpyrazin-2-yl)pyrazolo[4,3-c]pyridin-1-yl]-2-pyridyl]piperidin-2-one] | 26.2 | 744 | 23.2
24 | Cc1cncc(-c2cc3c(cn2)cnn3-c2cccc(N3CCC4(CCNC4)CC3)n2)n1 [Compound 200, 8-[6-[6-(6-methylpyrazin-2-yl)pyrazolo[4,3-c]pyridin-1-yl]-2-pyridyl]-2 8-diazaspiro[4.5]decane] | 1.21 | 17 | 0.451
25 | NCC1CN(c2cccc(-n3ncc4cnc(-c5cnn(CC(F)(F)F)c5)cc43)n2)C1 [Compound 262, (1-(6-(6-(1-(2,2,2-Trifluoroethyl)-1H-pyrazol-4-yl)-1H-pyrazolo[4,3-c]pyridin-1-yl)pyridin-2-yl)azetidin-3-yl)methanamine] | 1.23 | 12.5 | 1.84
26 | Cc1cncc(-c2cc3c(cn2)cnn3-c2cn(C)c(=O)c(N3CCC[C@H](N)C3)n2)n1 [Compound 241, (S)-3-(3-aminopiperidin-1-yl)-1-methyl-5-(6-(6-methylpyrazin-2-yl)-1H-pyrazolo[4,3-c]pyridin-1-yl)pyrazin-2(1H)-one] | 3.53 | 45.5 | 0.762

From US9434725B2, “5-azaindazole compounds and methods of use” (priority 2012, dated 2016)
